How the values were obtained:
rats in endotoxic shock = test: Endotoxic shock induced by E. coli LPS in rats; format: in vivo; conditions: 0.05 mg/kg after LPS 30 mg/kg iv; one rat, sacrificed at the end of experiment; vehicle rat died after 270 min
Protocol: FIG. 14 illustrates the efficiency of a low dose of centhaquin citrate in the treatment of septic shock. In the tests summarized in FIG. 14, anaesthetized rats were immobilized on a surgical board and an incision was made above the femoral vein and artery. The vessels were cleaned and isolated. Heart rate and mean arterial pressure were measured by cannulating left femoral artery with pressure transducer SPR-320 (Millar Instruments), connected to a ML221 bridge amplifier (AD Instruments) through AEC-10C connector and the signals were acquired (1000 S^−) using PowerLab 16/30. Left femoral veins were secured for drug administration using PE 50 tubing (Clay Adams, Parsipanny, N.J.). Right femoral artery was cannulated for blood drawings using PE 50 tubing (Clay Adams, Parsipanny, N.J.). After completion of the surgery, animals were maintained in a steady state for 30 minutes before administration of Lipopolysaccharide (LPS). Endotoxic shock was induced by intravenous injection of E. coli LPS O111:B4 (Sigma Chemical, St. Louis, Mo.) dissolved to a concentration of 10 mg in 0.1 ml of normal saline and a dose of 30 mg/kg was administered. Resuscitation (R) was performed either with vehicle (saline) or with centhaquin citrate (0.05 mg/kg). The rat treated with vehicle has lower blood pressure compared to the rat treated with centhaquin. […]

[1] = system: urethane anesthetized rats; test: Cardiovascular effects in urethane anesthetized rats, centhaquin vs centhaquin citrate; format: in vivo, rat; conditions: 0.05, 0.15, 0.45 mg/kg; 60 minute period; mean blood pressure, pulse pressure, heart rate, cardiac output, stroke volume, stroke work
Protocol: In these plots, centhaquin is tested as the free base in amounts of 0.05, 0.15, and 0.45 mg/kg. Similarly, centhaquin citrate dihydrate is tested in amounts of 0.05, 0.15, and 0.45 mg/kg. These amounts of centhaquin citrate are equivalent to 0.030, 0.089, and 0.267 mg/kg of centhaquin as the free base.

α2 adrenergic receptors = test: Centhaquin resuscitation with and without α2 adrenergic antagonists: arterial blood hematocrit, pH, gases, electrolytes, lactate; format: in vivo, rat; conditions: hemorrhaged rats
hemorrhaged rats = conditions: Gill, Pelit et al. 2011; cited from earlier work

Cc1cccc(N2CCN(CCc3ccc4ccccc4n3)CC2)c1.O=C(O)CC(O)(CC(=O)O)C(=O)O [centhaquin citrate]
survival (rats in endotoxic shock): 360 min
cardiovascular effects compared to centhaquin free base at same mg/kg dose [1]: substantially outperformed centhaquin free base

COC(=O)[C@@H]1[C@H]2C[C@H]3c4[nH]c5ccccc5c4CCN3C[C@@H]2CC[C@@H]1O [yohimbine, reference compound]
effect of the α2 adrenergic antagonist on the resuscitative effect of centhaquin (α2 adrenergic receptors): completely blocked

N=C(N)NCCCCN [Agmatine]
resuscitative effect (hemorrhaged rats): effective resuscitation agent
resuscitative effect in presence of yohimbine (hemorrhaged rats): completely blocked

CCC1(c2cnc[nH]2)Cc2ccccc2C1 [atipamezole, reference compound]
effect of the α2 adrenergic antagonist on the resuscitative effect of centhaquin (α2 adrenergic receptors): completely blocked
